Molecular target: glucan synthase (GS) prepared from Candida albicans MY1055 (Candida albicans, UniProt O13428)
Test: Glucan synthase inhibition (polymerization assay, 96-well)
Assay type: biochemical
Conditions: GS from C. albicans MY1055; 60 min incubation at 22° C.
Experimental: The in vitro evaluation of glucan synthase inhibitory activity of compounds was measured in a polymerization assay in 96-well format. Each well contained 100 μL of ^3H-UDPG at 0.5 mM (6000 to 8000 dpm/nmol), 50 mM HEPES pH 7.5 (Sigma), 10% w/v glycerol (Sigma), 1.5 mg/mL bovine serum albumin (Sigma A 9647. Lot 44H0190), 25 mM KF (Fisher), 1 mM EDTA (Gibco ULTRAPURE), 25 μM GTP-γ-S, enzyme sufficient to give 3 to 6 nmoles incorporation during the 60 min incubation at 22° C., and test compound added from wells in 3-fold serial dilutions in 100% DMSO (1 μL/well). The reaction was stopped by the addition of 100 μL of 20% trichloroacetic acid. Plates were chilled for a minimum of 10 min, and precipitated glucan collected by filtration on GF/C plates (Packard UNIFILTER®-96), washed with 5 cycles of water (about 1 mL/well each cycle) using a Packard FILTERMATE HARVESTER. 40 μL/well scintillation fluid (Packard ULTIMA GOLD TM-XR) was added and the sealed plates counted in a WALLAC BETA counter in top-counting mode at an efficiency of approximately 40%.
Stock solutions were stored at 10 mg/mL in DMSO at −20° C. For each new enzyme preparation, the initial titration performed started at 1 mg/mL, which was prepared by making a 10-fold dilution in DMSO (5 μL to 50 μL). 40 μL of this stock was placed in column 12 of a round-bottomed 96-well microtiter plate. 40 μL DMSO was added to columns 1 to 11 in the same row and ten 3-fold serial dilutions performed, by transferring 20 μL from column 12 to column 11 etc., with 4 mixings before each transfer. No test compound was transferred to from column 2 to column 1. Duplicate aliquots of 1 μL of all 12 dilutions were then transferred to the side walls of a 96-well Bioblock 1.1 mL plate (Fisher brand) to create two rows.
Graphs of the primary data were created in PRISM software (the average of two determinations) using PRISM's curve fitting program (sigmoidal dose response non-linear regression). The amount of compound required to inhibit glucan synthase activity by 50% in this assay (IC50−ng/mL) was calculated.
Routine analysis was performed with glucan synthase (GS) prepared from Candida albicans MY1055 by the following procedure: MY1055 was grown in 10 liters YPD medium (10 g yeast extract, 20 g tryptone, 20 g glucose per liter) with vigorous shaking at 30° C., to early stationary phase. Cells were harvested by centrifugation, the pellet was washed and frozen at −70° C. until breakage. Thawed pellets were shaken with an equal volume of breakage buffer (50 mM HEPES pH 7.4, 10% glycerol, 1 mM EDTA, 1 mM PMSF, 1 mM DTT) and 4 times their weight of 0.5 mm acid washed glass beads for 2 hours at 4° C. Extent of breakage was assessed visually at 40× magnification. After low speed centrifugation to remove cell debris, the supernatant was centrifuged at 100,000×g for 60 min. to separate membranes plus ribosomes from cytoplasmic components. Membranes were further washed two additional times with breakage buffer using the same centrifugation conditions and finally suspended in breakage buffer at 25 to 30 mg/mL protein (Biorad) for storage at −70° C. Extraction of GS activity from membranes was performed at a protein concentration of 5 mg/mL in extraction buffer (50 mM NaPO4 pH 7.5, 0.1 M KCl, 0.1M Na citrate, 20% glycerol, 5 μM GTP-γ-S, 1 mM DTT, 1 mM PMSF, 3 μg/mL pepstatin) plus 0.25% W1 by gentle mixing at 4° C. for 60 min, followed by centrifugation at 100,000×g for 60 min. After centrifugation, clear supernatant was removed from a pellet consisting of a hard layer usually with small amounts of gelatinous unextracted membranes above it.
Trapping was initiated immediately by 5-fold dilution in trapping buffer (50 mM HEPES pH 7.5, 10 mM KF, 1 mM EDTA, 2 mg/mL BSA) plus 2.5 mM UDPG and 10 μM GTP-γ-S. After incubation at 25° C. for 60 to 90 minutes, glucan was harvested by low speed centrifugation (3,000×g, 10 min). […]

Chain of glucan synthase (GS) prepared from Candida albicans MY1055 (O13428 1-1897): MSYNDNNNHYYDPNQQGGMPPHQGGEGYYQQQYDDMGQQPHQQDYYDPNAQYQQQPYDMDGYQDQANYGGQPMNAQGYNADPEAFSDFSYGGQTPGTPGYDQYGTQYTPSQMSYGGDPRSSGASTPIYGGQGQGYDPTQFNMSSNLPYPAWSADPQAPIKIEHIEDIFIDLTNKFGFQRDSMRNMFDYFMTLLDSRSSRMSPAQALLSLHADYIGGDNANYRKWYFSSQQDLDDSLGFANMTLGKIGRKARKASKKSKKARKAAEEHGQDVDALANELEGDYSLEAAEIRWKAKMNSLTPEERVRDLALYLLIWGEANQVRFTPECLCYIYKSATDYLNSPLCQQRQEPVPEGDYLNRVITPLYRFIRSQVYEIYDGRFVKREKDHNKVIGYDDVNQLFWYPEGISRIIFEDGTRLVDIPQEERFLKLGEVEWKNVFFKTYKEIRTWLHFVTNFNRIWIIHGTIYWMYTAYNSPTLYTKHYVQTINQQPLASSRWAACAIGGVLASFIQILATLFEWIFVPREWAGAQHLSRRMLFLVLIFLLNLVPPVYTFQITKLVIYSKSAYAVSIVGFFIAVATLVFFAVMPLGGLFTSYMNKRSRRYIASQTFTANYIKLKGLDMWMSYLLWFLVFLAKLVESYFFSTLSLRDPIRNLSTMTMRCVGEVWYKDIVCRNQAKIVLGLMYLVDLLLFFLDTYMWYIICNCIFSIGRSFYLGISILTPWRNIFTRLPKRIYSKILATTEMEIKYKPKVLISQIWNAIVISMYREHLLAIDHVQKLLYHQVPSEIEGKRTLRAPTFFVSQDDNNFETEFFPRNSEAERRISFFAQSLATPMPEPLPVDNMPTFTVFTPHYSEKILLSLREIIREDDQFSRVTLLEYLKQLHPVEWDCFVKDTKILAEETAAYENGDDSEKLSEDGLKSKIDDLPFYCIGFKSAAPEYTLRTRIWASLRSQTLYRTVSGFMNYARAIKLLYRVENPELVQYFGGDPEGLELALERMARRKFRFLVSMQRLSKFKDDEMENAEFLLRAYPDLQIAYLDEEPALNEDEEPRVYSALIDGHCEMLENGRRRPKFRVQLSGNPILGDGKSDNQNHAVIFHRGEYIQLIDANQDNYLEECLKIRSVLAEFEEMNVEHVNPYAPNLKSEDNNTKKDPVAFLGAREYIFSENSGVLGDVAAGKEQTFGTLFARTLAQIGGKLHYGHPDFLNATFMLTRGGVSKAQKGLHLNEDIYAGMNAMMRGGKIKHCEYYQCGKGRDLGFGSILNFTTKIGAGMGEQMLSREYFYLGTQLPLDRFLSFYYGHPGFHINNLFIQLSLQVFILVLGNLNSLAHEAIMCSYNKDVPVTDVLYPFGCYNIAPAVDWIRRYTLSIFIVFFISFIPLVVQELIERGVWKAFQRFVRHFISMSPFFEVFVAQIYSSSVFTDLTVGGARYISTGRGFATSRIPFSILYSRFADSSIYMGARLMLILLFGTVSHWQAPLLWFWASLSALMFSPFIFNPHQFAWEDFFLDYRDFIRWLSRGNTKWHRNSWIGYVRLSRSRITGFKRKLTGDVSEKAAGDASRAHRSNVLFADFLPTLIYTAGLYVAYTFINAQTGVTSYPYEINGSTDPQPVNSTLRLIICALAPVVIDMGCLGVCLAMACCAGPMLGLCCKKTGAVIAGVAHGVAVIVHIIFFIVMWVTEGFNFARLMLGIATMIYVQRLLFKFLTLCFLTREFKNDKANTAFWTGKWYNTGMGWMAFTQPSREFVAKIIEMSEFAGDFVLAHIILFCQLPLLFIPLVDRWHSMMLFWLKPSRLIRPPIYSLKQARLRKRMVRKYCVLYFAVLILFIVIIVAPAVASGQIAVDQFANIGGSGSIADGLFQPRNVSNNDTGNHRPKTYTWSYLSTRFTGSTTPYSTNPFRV

Row | Structure (SMILES) | Candida Albicans GS IC50 [ng/mL]
1 | CN[C@@](C)(CO[C@H]1[C@H](n2ncnc2I)C[C@@]23COC[C@]1(C)[C@@H]2CC[C@H]1C3=CC[C@@]2(C)[C@H](C(=O)O)[C@@](C)([C@H](C)C(C)C)CC[C@]12C)C(C)C (racemic) [Example 22, (1S,4aR,6aS,7R,8R,10aR,10bR,12aR,14R,1SR)-15-[[(2R)-2,3-dimethyl-2-(methylamino)butyl]oxy]-8-[(1R)-1,2-dimethylpropyl]-14-(5-iodo-1H-1,2,4-triazol-1-yl)-1,6,6a,7,8,9,10,10a,10b,11,12,12a-dodecahydro-1,6a,8,10a-tetramethyl-4H-1,4a-propano-2H-phenanthro[1,2-c]pyran-7-carboxylic acid] | 5

Same assay, conditions: GS from C. albicans MY1055; 60 min incubation at 22° C.; read-out: Candida Albicans GS IC50 (converted)

Row | Structure (SMILES) | IC50 [nM]
2 | COC(=O)c1ncn([C@@H]2C[C@@]34COC[C@](C)([C@@H]3CC[C@H]3C4=CC[C@@]4(C)[C@H](C(=O)O)[C@@](C)([C@H](C)C(C)C)CC[C@]34C)[C@H]2OC[C@](C)(N)C(C)C)n1 (single isomer, unassigned) [Example 8A] | 5.74
3 | CC(C)[C@@H](C)[C@@]1(C)CC[C@]2(C)[C@H]3CC[C@@H]4[C@@]5(COC[C@@]4(C)[C@@H](OC[C@](C)(N)C(C)C)[C@H](n4nc(Br)nc4[N+](=O)[O-])C5)C3=CC[C@@]2(C)[C@@H]1C(=O)O (single isomer, unassigned) [Example 29B] | 81.3
4 | CC(C)[C@@H](C)[C@@]1(C)CC[C@]2(C)[C@H]3CC[C@@H]4[C@@]5(COC[C@@]4(C)[C@@H](OC[C@](C)(N)C(C)C)[C@H](n4nc(N)nc4C4CC4)C5)C3=CC[C@@]2(C)[C@@H]1C(=O)O (single isomer, unassigned) [Example 32A] | 4.32
5 | CC(C)[C@@H](C)[C@@]1(C)CC[C@]2(C)[C@H]3CC[C@@H]4[C@@]5(COC[C@@]4(C)[C@@H](OC[C@](C)(N)C(C)(C)C)[C@H](n4cnnc4)C5)C3=CC[C@@]2(C)[C@@H]1C(=O)O [Example 1B, (1S,4aR,6aS,7R,8R,10aR,10bR,12aR,14R,15R)-15-[[(2R)-2-amino-2,3,3-trimethylbutyl]oxy]-8-[(1R)-1,2-dimethylpropyl]-14-(4H-1,2,4-triazol-4-yl)-1,6,6a,7,8,9,10,10a,10b,11,12,12a-dodecahydro-1,6a,8,10a-tetramethyl-4H-1,4a-propano-2H-phenanthro[1,2-c]pyran-7-carboxylic acid] | 42.9
6 | CN[C@](C)(CO[C@H]1[C@H](n2cncn2)C[C@@]23COC[C@]1(C)[C@@H]2CC[C@H]1C3=CC[C@@]2(C)[C@H](C(=O)O)[C@@](C)([C@H](C)C(C)C)CC[C@]12C)C(C)C [Example 3, (1S,4aR,6aS,7R,8R,10aR,10bR,12aR,14R,15R)-15-[[(2S)-2,3-dimethyl-2-(methylamino)butyl]oxy]-8-[(1R)-1,2-dimethylpropyl]-14-(1H-1,2,4-triazol-1-yl)-1,6,6a,7,8,9,10,10a,10b,11,12,12a-dodecahydro-1,6a,8,10a-tetramethyl-4H-1,4a-propano-2H-phenanthro[1,2-c]pyran-7-carboxylic acid] | 26
7 | CN[C@@](C)(CO[C@H]1[C@H](n2cnc(N)n2)C[C@@]23COC[C@]1(C)[C@@H]2CC[C@H]1C3=CC[C@@]2(C)[C@H](C(=O)O)[C@@](C)([C@H](C)C(C)C)CC[C@]12C)C(C)C [Example 5, (1S,4aR,6aS,7R,8R,10aR,10bR,12aR,14R,15R)-14-(3-amino-1H-1,2,4-triazol-1-yl)-15-[[(2R)-2,3-dimethyl-2-(methylamino)butyl]oxy]-8-[(1R)-1,2-dimethylpropyl]-1,6,6a,7,8,9,10,10a,10b,11,12,12a-dodecahydro-1,6a,8,10a-tetramethyl-4H-1,4a-propano-2H-phenanthro[1,2-c]pyran-7-carboxylic acid] | 12
8 | CC(C)[C@@H](C)[C@@]1(C)CC[C@]2(C)[C@H]3CC[C@@H]4[C@@]5(COC[C@@]4(C)[C@@H](OC[C@](C)(N)C(C)C)[C@H](n4cnc(Br)n4)C5)C3=CC[C@@]2(C)[C@@H]1C(=O)O [Example 6C, (1S,4aR,6aS,7R,8R,10aR,10bR,12aR,14R,15R)-15-[[(2R)-2-amino-2,3-dimethylbutyl]oxy]-14-(3-bromo-1H-1,2,4-triazol-1-yl)-8-[(1R)-1,2-dimethylpropyl]-1,6,6a,7,8,9,10,10a,10b,11,12,12a-dodecahydro-1,6a,8,10a-tetramethyl-4H-1,4a-propano-2H-phenanthro[1,2-c]pyran-7-carboxylic acid] | 47.4
9 | CC(C)[C@@H](C)[C@@]1(C)CC[C@]2(C)[C@H]3CC[C@@H]4[C@@]5(COC[C@@]4(C)[C@@H](OCC(C)(C(C)C)N(C)C)[C@H](n4ncnc4Cl)C5)C3=CC(=O)[C@@]2(C)[C@@H]1C(=O)O (stereo partly drawn) [Example 9B, (1S,4aR,6aS,7R,8R,10aR,10bR,12aR,14R,15R)-14-(5-chloro-1H-1,2,4-triazol-1-yl)-15-[2-(dimethylamino)-2,3-dimethylbutoxy]-8-[(1R)-1,2-dimethylpropyl]-1,6,6a,7,8,9,10,10a,10b,11,12,12a-dodecahydro-1,6a,8,10a-tetramethyl-6-oxo-4H-1,4a-propano-2H-phenanthro[1,2-c]pyran-7-carboxylic acid] | 36.3
10 | CC(C)[C@@H](C)[C@@]1(C)CC[C@]2(C)[C@H]3CC[C@@H]4[C@@]5(COC[C@@]4(C)[C@@H](OCC(C)(C(C)C)N(C)C)[C@H](n4cnc(Cl)n4)C5)C3=CC(=O)[C@@]2(C)[C@@H]1C(=O)O (stereo partly drawn) [Example 9C, (1S,4aR,6aS,7R,8R,10aR,10bR,12aR,14R,15R)-14-(3-chloro-1H-1,2,4-triazol-1-yl)-15-[2-(dimethylamino)-2,3-dimethylbutoxy]-8-[(1R)-1,2-dimethylpropyl]-1,6,6a,7,8,9,10,10a,10b,11,12,12a-dodecahydro-1,6a,8,10a-tetramethyl-6-oxo-4H-1,4a-propano-2H-phenanthro[1,2-c]pyran-7-carboxylic acid] | 74.1

Further lines, results first:

Row | IC50 [nM] | Structure (SMILES)
11 | 60.8 | CC(C)NC(=O)c1ncn([C@@H]2C[C@@]34COC[C@](C)([C@@H]3CC[C@H]3C4=CC[C@@]4(C)[C@H](C(=O)O)[C@@](C)([C@H](C)C(C)C)CC[C@]34C)[C@H]2OC[C@](C)(N)C(C)C)n1 (single isomer, unassigned) [Example 37B]
12 | 17.2 | CC(C)[C@@H](C)[C@@]1(C)CC[C@]2(C)[C@H]3CC[C@@H]4[C@@]5(COC[C@@]4(C)[C@@H](OC[C@](C)(N)C(C)C)[C@H](n4nccn4)C5)C3=CC[C@@]2(C)[C@@H]1C(=O)O (single isomer, unassigned) [Example 288B]
13 | 126 | COC(=O)c1cnnn1[C@@H]1C[C@@]23COC[C@](C)([C@@H]2CC[C@H]2C3=CC[C@@]3(C)[C@H](C(=O)O)[C@@](C)([C@H](C)C(C)C)CC[C@]23C)[C@H]1OC[C@](C)(N)C(C)C (single isomer, unassigned) [Example 289B]
14 | 4.39 | CC(C)[C@@H](C)[C@@]1(C)CC[C@]2(C)[C@H]3CC[C@@H]4[C@@]5(COC[C@@]4(C)[C@@H](OC[C@](C)(N)C(C)C)[C@H](n4nccc4[N+](=O)[O-])C5)C3=CC[C@@]2(C)[C@@H]1C(=O)O (single isomer, unassigned) [Example 293B]
15 | 30.7 | CC(C)[C@@H](C)[C@@]1(C)CC[C@]2(C)[C@H]3CC[C@@H]4[C@@]5(COC[C@@]4(C)[C@@H](OCC4COCCN4)[C@H](n4ncnc4-c4ccncc4)C5)C3=CC[C@@]2(C)[C@@H]1C(=O)O (single isomer, unassigned) [Example 303A]

From patent US8188085B2, “Antifungal agents” (Merck Sharp & Dohme Corp., priority 2008, dated 2012)
